In the supplement of paper PMC6723410:

Tested on: GUMC-403
Test: viability at highest tested concentration (max response) relative to DMSO (% of DMSO control); higher = less cytotoxic
Conditions: library / dose series: MIPE library, 11-point 1:3 dilution; top concentration 46.1 µM; 48 h
Method in brief: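 The value is viability at the highest tested concentration, expressed relative to vehicle control. Patient-derived GUMC-403 papilloma cells, grown by conditional reprogramming, were seeded at 700/well in 5 μL F + Y medium in 1536-well plates. After an overnight incubation at 37 °C, they received 23 nL of compound by pin tool for 48 h. Readout was CellTiter-Glo luminescence on a ViewLux, normalised to vehicle wells (100%) and empty wells (0%).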

Compound	viability
Nc1ncnc2c1ncn2[C@@H]1O[C@H](CO)[C@@H](O)[C@H]1O	132
C/C=C(\C)C(=O)N[C@@H](c1ccccc1)[C@@H](O)C(=O)O[C@H]1C[C@@]2(O)[C@@H](OC(=O)c3ccccc3)[C@@H]3[C@]4(OC(C)=O)CO[C@@H]4C[C@H](O)[C@@]3(C)C(=O)[C@H](OC(C)=O)C(=C1C)C2(C)C	111
CN1[C@@H]2CCC[C@H]1C[C@@H](NC(=O)c1nn(C)c3ccccc13)C2.Cl	105
Cc1ccc(NC(=O)Nc2cc(C(F)(F)F)ccc2F)cc1Nc1ccc2c(c1)NC(=O)/C2=C\c1ccc[nH]1	99.8
CCC(C)(Oc1ccc(C2(c3ccc(OC(C)(CC)C(=O)O)cc3)CCCCC2)cc1)C(=O)O (centres undefined)	131
Cc1noc(-c2ccc(CSCCC(=O)O)cc2)c1NC(=O)OC(C)c1ccccc1Cl (centres undefined)	106
Cc1cnc(Nc2ccc(F)cc2Cl)nc1-c1c[nH]c(C(=O)N[C@H](CO)c2cccc(Cl)c2)c1	80.9
CC(=O)O/N=C1/C(=C2\C(=O)Nc3cc(Br)ccc32)Nc2ccccc21	122
Cc1[nH]c(/C=C2\C(=O)Nc3ccccc32)c(C)c1CCC(=O)O	98.9
Nc1ncnc2ccccc12	127
OC[C@H]1O[C@@H](O[C@@H]2O\C=C(/[C@H]3C\C=C(CO)/[C@@H]23)C(O)=O)[C@H](O)[C@@H](O)[C@@H]1O	124
COc1nc(C)cnc1N[S+](=O)([O-])c1cccnc1-c1ccc(-c2nnco2)cc1	138
Oc1nc(-c2ccc(C(F)(F)F)cc2)nc2c1CSCC2	86.4
OCCn1cc(-c2cnc3nnn(Cc4ccc5ncccc5c4)c3n2)cn1	106
CC(C)=CC[C@@H](O)C/1=C/C(=O)C2=C(O)C=CC(=C2C1=O)O	78.5
N#Cc1c(NC(=O)c2cccc3ccccc23)sc2c1CCCC2	109
Cn1cnc([N+](=O)[O-])c1Sc1ncnc2nc[nH]c12	105

Compound	viability
Cc1c(C)n(Cc2ccc(-c3ccccc3C(=O)O)cc2)c2ccc(C(=O)N[C@@H](C)c3ccc([N+](=O)[O-])cc3)cc12	102
N\C1=N\C2=C(N=C[N]2COC(CO)CO)C(=O)N1	43.9
CC[C@@]1(O)C(=O)OCC/2=C1/C=C3\N(CC4=CC5=CC(=CC=C5N=C34)O)C2=O	42.5
COc1cc2c(NC3CCN(C(C)C)CC3)nc(C3CCCCC3)nc2cc1OCCCN1CCCC1	82.3
CCN1\C=C(\C(O)=O)C(=O)C2=CC=C(C)N=C12	92
CNC(=O)CN1CCC(Oc2cc3c(Nc4cccc(Cl)c4F)ncnc3cc2OC)CC1	61.1
C[C@@H](Oc1cc(-c2cnn(C3CCNCC3)c2)cnc1N)c1c(Cl)ccc(F)c1Cl	76.6
O=C(NCC1CCOCC1)c1cnc(Nc2ccc(Cl)cc2Cl)nc1C(F)(F)F	141
CC(O)(C#Cc1ccc2c(c1)N(c1nc(N)ncc1Cl)CC2)c1nccs1 (centres undefined)	86.5
C[C@@H]1CCO[C@H]2CN\3/C=C(/C(=O)NCC4=C(F)C=C(F)C=C4)C(=O)\C(=C3C(=O)N12)O	110
CN(C)c1nc(N(C)C)nc(N(C)C)n1	95.4
CC(C)(C)[C@]1(O)C[C@@H]2OC(=O)C[C@@]23C(=O)O[C@@H]2OC(=O)[C@H](O)C213 (some centres undefined)	99.4
N#CC1(c2ccc(NC(=O)c3cccnc3NCc3ccncc3)cc2)CCCC1	101
C[C@]\12CC[C@H](O)CC1=C/CC3C2CC[C@@]\4(C)C3C\C=C4[N]5C=NC6=C5C=CC=C6 (some centres undefined)	108
CN(C)C[C@@H]1CC[N]2C=C(C3=C2C=CC=C3)C/4=C(/C(=O)NC4=O)C5=C[N](CCO1)C6=C5C=CC=C6	89.8
CC1Cc2ccccc2N1NC(=O)c1ccc(Cl)c([S+](N)(=O)[O-])c1 (centres undefined)	105

Same assay, conditions: library / dose series: MIPE library, 11-point 1:3 dilution; top concentration 92.2 µM; 48 h

Compound	viability
COc1cc(/C=C/C(=O)CC(=O)/C=C/c2ccc(O)c(OC)c2)ccc1O	94.4
